Patent publication US6613718B2, “Aryl ether derivatives and processes for their preparation and herbicidal and desiccant compositions containing them” (Ishihara Sangyo Kaisha, Ltd., priority 2001, dated 2003)

Tests used:
[1] = test system: soybean (Glycine max L., var. Pella 86, SOY); assay: Post-emerge greenhouse screening, crop safety (phytotoxicity rating); format: in vivo; details: 14 days after application
In short: (§1)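 Each compound, dissolved in acetone, was sprayed at 15–1000 g ai/ha. Pre-emerge pots were sown the previous day and watered from above right after treatment; post-emerge plants, 2-3 leaves, got 0.25% v/v surfactant. Injury was graded 0–100 on day 14.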

[2] = test system: upland rice (Oryza sp., var.Tebonnet, RICE); assay: as above; format: in vivo; details: 14 days after application
In short: as §1

[3] = test system: large crabgrass (Digitaria sanguinalis, DIGSA); assay: Post-emerge greenhouse herbicide activity screening, phytotoxicity rating; format: in vivo; details: 14 days after application
In short: as §1

[4] = test system: green foxtail (Setaria viridis, SETVI); assay: as above; format: in vivo
In short: as §1

[5] = test system: lambsquarters (Chenopodium album, CHEAL); assay: as above; format: in vivo
In short: as §1

[6] = test system: barnyardgrass (Echinochloa crus-galli, ECHCG); assay: as above; format: in vivo; details: 14 days after application
In short: as §1

[7] = test system: sicklepod (Cassia obtusifolia, CASOB); assay: as above; format: in vivo
In short: as §1

[8] = test system: redroot pigweed (Amaranthus retroflexus, AMARE); assay: as above; format: in vivo
In short: as §1

[9] = test system: velvetleaf (Abutilon theophrasti, ABUTH); assay: as above; format: in vivo; details: 14 days after application
In short: as §1

[10] = test system: common ragweed (Ambrosia artemisiifolia L., AMBEL); assay: as above; format: in vivo
In short: as §1

[11] = test system: ivyleaf morningglory (Ipomoea hederacea, IPOHE); assay: as above; format: in vivo; details: 14 days after application
In short: as §1

[12] = test system: johnsongrass (Sorghum halepense, SORHA); assay: as above; format: in vivo; details: 14 days after application
In short: as §1

[13] = test system: field corn (Zea mays L., var. Dekalb 535, CORN); assay: Post-emerge greenhouse screening, crop safety / corn selectivity (phytotoxicity rating); format: in vivo; details: 14 days after application
In short: as §1

[14] = as above; format: in vivo, Zea mays L.; details: Zea mays (field corn), in vivo, 62.5 g ai/ha
In short: as §1

[15] = test system: large crabgrass (Digitaria sanguinalis, DIGSA); assay: Pre-emerge greenhouse herbicide activity screening, phytotoxicity rating; format: in vivo; details: 14 days after application
In short: as §1

[16] = test system: green foxtail (Setaria viridis, SETVI); assay: as above; format: in vivo; details: 14 days after application
In short: as §1

[17] = test system: lambsquarters (Chenopodium album, CHEAL); assay: as above; format: in vivo; details: 14 days after application
In short: as §1

[18] = test system: barnyardgrass (Echinochloa crus-galli, ECHCG); assay: as above; format: in vivo; details: 14 days after application
In short: as §1

[19] = test system: sicklepod (Cassia obtusifolia, CASOB); assay: as above; format: in vivo; details: 14 days after application
In short: as §1

[20] = test system: redroot pigweed (Amaranthus retroflexus, AMARE); assay: as above; format: in vivo; details: 14 days after application
In short: as §1

[21] = test system: velvetleaf (Abutilon theophrasti, ABUTH); assay: as above; format: in vivo; details: 14 days after application
In short: as §1

[22] = test system: common ragweed (Ambrosia artemisiifolia L., AMBEL); assay: as above; format: in vivo; details: 14 days after application
In short: as §1

[23] = test system: ivyleaf morningglory (Ipomoea hederacea, IPOHE); assay: as above; format: in vivo; details: 14 days after application
In short: as §1

[24] = test system: johnsongrass (Sorghum halepense, SORHA); assay: as above; format: in vivo; details: 14 days after application
In short: as §1

[25] = test system: soybean (Glycine max L., var. Pella 86, SOY); assay: Pre-emerge greenhouse screening, crop safety (phytotoxicity rating); format: in vivo; details: 14 days after application
In short: as §1

[26] = test system: field corn (Zea mays L., var. Dekalb 535, CORN); assay: as above; format: in vivo; details: 14 days after application
In short: as §1

[27] = test system: upland rice (Oryza sp., var.Tebonnet, RICE); assay: as above; format: in vivo; details: 14 days after application
In short: as §1

[28] = 125 g ai/ha, 14 days after application
[29] = 250 g ai/ha, 14 days after application

Cn1nc(-c2cc(Oc3ncccn3)c(Cl)cc2F)c(Cl)c1[S+]([O-])C(F)F (stereo not drawn) [Compound 5-1]
95: SETVI phytotoxicity rating (0-100 scale) [4, 28] | SETVI phytotoxicity rating (0-100 scale) [4, 29]
85: CASOB phytotoxicity rating (0-100 scale) ([7]; 62.5 g ai/ha)
0: SOY crop damage, phytotoxicity rating (0-100 scale) ([25]; 125 g ai/ha)
75: ECHCG phytotoxicity rating (0-100 scale) ([6]; 125 g ai/ha) | AMBEL phytotoxicity rating (0-100 scale) [10, 29] | SORHA phytotoxicity rating (0-100 scale) ([12]; 125 g ai/ha) | SORHA phytotoxicity rating (0-100 scale) ([12]; 250 g ai/ha) | AMBEL phytotoxicity rating (0-100 scale) ([22]; 125 g ai/ha)
5: corn phytotoxicity rating (0-100 scale) at 14 days [14]
90: CASOB phytotoxicity rating (0-100 scale) ([19]; 250 g ai/ha)
99: CASOB phytotoxicity rating (0-100 scale) [7, 28] | ABUTH phytotoxicity rating (0-100 scale) ([21]; 125 g ai/ha) | IPOHE phytotoxicity rating (0-100 scale) ([23]; 125 g ai/ha)
7: CORN crop damage, phytotoxicity rating (0-100 scale) ([13]; 125 g ai/ha)
65: SOY crop damage, phytotoxicity rating (0-100 scale) ([1]; 125 g ai/ha) | ECHCG phytotoxicity rating (0-100 scale) ([6]; 250 g ai/ha) | AMBEL phytotoxicity rating (0-100 scale) [10, 28] | SOY crop damage, phytotoxicity rating (0-100 scale) ([25]; 250 g ai/ha)
55: SOY crop damage, phytotoxicity rating (0-100 scale) ([1]; 250 g ai/ha) | RICE crop damage, phytotoxicity rating (0-100 scale) ([2]; 250 g ai/ha) | DIGSA phytotoxicity rating (0-100 scale) ([3]; 250 g ai/ha) | RICE crop damage, phytotoxicity rating (0-100 scale) ([27]; 125 g ai/ha)
8: CORN crop damage, phytotoxicity rating (0-100 scale) ([13]; 250 g ai/ha)
50: RICE crop damage, phytotoxicity rating (0-100 scale) ([2]; 125 g ai/ha) | DIGSA phytotoxicity rating (0-100 scale) ([3]; 125 g ai/ha) | SETVI phytotoxicity rating (0-100 scale) ([4]; 31.3 g ai/ha) | AMBEL phytotoxicity rating (0-100 scale) ([10]; 31.3 g ai/ha) | CORN crop damage, phytotoxicity rating (0-100 scale) ([26]; 250 g ai/ha)
80: RICE crop damage, phytotoxicity rating (0-100 scale) ([27]; 250 g ai/ha)
40: CORN crop damage, phytotoxicity rating (0-100 scale) ([26]; 125 g ai/ha)
100: CHEAL phytotoxicity rating (0-100 scale) ([5]; 31.3 g ai/ha) | CHEAL phytotoxicity rating (0-100 scale) ([5]; 62.5 g ai/ha) | CHEAL phytotoxicity rating (0-100 scale) [5, 28] | CHEAL phytotoxicity rating (0-100 scale) [5, 29] | CASOB phytotoxicity rating (0-100 scale) [7, 29] | AMARE phytotoxicity rating (0-100 scale) ([8]; 62.5 g ai/ha) | AMARE phytotoxicity rating (0-100 scale) [8, 28] | AMARE phytotoxicity rating (0-100 scale) [8, 29] | ABUTH phytotoxicity rating (0-100 scale) ([9]; 125 g ai/ha) | ABUTH phytotoxicity rating (0-100 scale) ([9]; 250 g ai/ha) | IPOHE phytotoxicity rating (0-100 scale) ([11]; 125 g ai/ha) | IPOHE phytotoxicity rating (0-100 scale) ([11]; 250 g ai/ha) | DIGSA phytotoxicity rating (0-100 scale) ([15]; 125 g ai/ha) | DIGSA phytotoxicity rating (0-100 scale) ([15]; 250 g ai/ha) | SETVI phytotoxicity rating (0-100 scale) ([16]; 125 g ai/ha) | SETVI phytotoxicity rating (0-100 scale) ([16]; 250 g ai/ha) | CHEAL phytotoxicity rating (0-100 scale) ([17]; 125 g ai/ha) | CHEAL phytotoxicity rating (0-100 scale) ([17]; 250 g ai/ha) | ECHCG phytotoxicity rating (0-100 scale) ([18]; 125 g ai/ha) | ECHCG phytotoxicity rating (0-100 scale) ([18]; 250 g ai/ha) | AMARE phytotoxicity rating (0-100 scale) ([20]; 125 g ai/ha) | AMARE phytotoxicity rating (0-100 scale) ([20]; 250 g ai/ha) | ABUTH phytotoxicity rating (0-100 scale) ([21]; 250 g ai/ha) | AMBEL phytotoxicity rating (0-100 scale) ([22]; 250 g ai/ha) | IPOHE phytotoxicity rating (0-100 scale) ([23]; 250 g ai/ha) | SORHA phytotoxicity rating (0-100 scale) ([24]; 125 g ai/ha) | SORHA phytotoxicity rating (0-100 scale) ([24]; 250 g ai/ha)
60: SETVI phytotoxicity rating (0-100 scale) ([4]; 62.5 g ai/ha) | AMBEL phytotoxicity rating (0-100 scale) ([10]; 62.5 g ai/ha) | CASOB phytotoxicity rating (0-100 scale) ([19]; 125 g ai/ha)
98: AMARE phytotoxicity rating (0-100 scale) ([8]; 31.3 g ai/ha)
35: CASOB phytotoxicity rating (0-100 scale) ([7]; 31.3 g ai/ha)
